The values below come from DBAASP.

Test systems include Bacillus cereus; Escherichia coli; Staphylococcus aureus.
What all share (assay): ≥ marks a high value that may be exact or a test limit, other limits are often not marked, values filed in µg/mL are converted to µM
Experiment [1] concerns Escherichia coli ATCC 25726.
Experiment [2] deals with Staphylococcus aureus ATCC 25923.
The subject of experiment [3] is Pseudomonas aeruginosa ATCC 9027.
For experiment [4], the system named is Staphylococcus aureus ATCC 6538.
Experiment [5] relates to Candida albicans ATCC 90028.

Each structure is given as a SMILES string. ≈ marks a conversion by molar mass, not a printed value. Where only a bound is given, the exact number is not on record here.

Regarding `CC[C@H](C)[C@H](NC(=O)CNC(=O)[C@@H](NC(=O)[C@H](CCSC)NC(=O)[C@H](C)NC(=O)[C@H](CC(N)=O)NC(=O)[C@H](CCCCN)NC(=O)[C@H](Cc1ccccc1)NC(=O)[C@H](CO)NC(=O)[C@H](CC(=O)O)NC(=O)[C@H](CC(C)C)NC(=O)[C@H](CC(C)C)NC(=O)CN)[C@@H](C)CC)C(=O)N[C@@H](C)C(=O)N[C@@H](CCCCN)C(=O)N[C@@H](CO)C(=O)N[C@@H](C)C(=O)NCC(=O)N[C@@H](CCCCN)C(=O)N[C@H](C(=O)N[C@@H](C)C(=O)N[C@@H](CC(C)C)C(=O)N[C@@H](CC(N)=O)C(=O)N[C@@H](CCCCN)C(=O)N[C@H](C(=O)N[C@@H](C)C(=O)N[C@H]1CSSC[C@@H](C(=O)O)NC(=O)[C@H]([C@@H](C)O)NC(=O)[C@H](CCCCN)NC(=O)[C@H](CC(=O)O)NC(=O)[C@H]([C@@H](C)CC)NC(=O)[C@H](CCCCN)NC1=O)[C@@H](C)CC)[C@@H](C)O` [GLLDSFKNAMIGIAKSAGKTALNKIACKIDKTC], the results for the MIC in experiment [1] and in experiment [2] were 18.2 µM (≈ 62.5 µg/mL) and greater than 73 µM, respectively.
Take `CC(C)C[C@H](NC(=O)[C@H](CC(C)C)NC(=O)[C@H](CCCCN)NC(=O)[C@H](CCCCN)NC(=O)[C@H](C)NC(=O)[C@H](CC(C)C)NC(=O)[C@H](CCCCN)NC(=O)[C@H](C)NC(=O)[C@H](CC(C)C)NC(=O)[C@H](C)NC(=O)[C@H](CCCCN)NC(=O)[C@H](C)NC(=O)[C@@H](N)Cc1ccccc1)C(N)=O` [FAKALAKLAKKLL]: the MIC in experiment [3] and in experiment [4] was 3.53 µM (≈ 5 µg/mL) in each case.
Turning to `CC(C)C[C@H](NC(=O)[C@@H](N)Cc1ccccc1)C(=O)NCC(=O)N[C@@H](CO)C(=O)N[C@H](C(=O)N[C@@H](Cc1ccccc1)C(=O)N[C@@H](CCCCN)C(=O)N[C@@H](CO)C(=O)N[C@@H](C)C(=O)N[C@@H](CO)C(=O)N[C@@H](CCCCN)C(=O)N[C@H](C(=O)N[C@@H](Cc1ccccc1)C(=O)N1CCC[C@H]1C(=O)N[C@@H](C)C(=O)N[C@H](C(=O)N[C@@H](Cc1ccccc1)C(=O)NCC(=O)N[C@@H](CCCCN)C(=O)N[C@H](C(=O)O)C(C)C)C(C)C)C(C)C)C(C)C` [FLGSVFKSASKVFPAVFGKV], the MIC (as a rule, the smallest concentration in the dilution series that meets the test's criterion for growth inhibition) is no less than 121 µM with Bacillus cereus, greater than 121 µM in the experiment with Escherichia coli and greater than 121 µM with Staphylococcus aureus.
With `CC[C@H](C)[C@H](NC(=O)[C@H](CCCCN)NC(=O)[C@@H](NC(=O)[C@@H](NC(=O)[C@@H](NC(=O)[C@H](CCC(N)=O)NC(=O)[C@H](C)NC(=O)CNC(=O)[C@H](CO)NC(=O)[C@H](CCCCN)NC(=O)[C@H](CCC(N)=O)NC(=O)[C@H](C)NC(=O)[C@H](CCCCN)NC(=O)[C@H](CCCCN)NC(=O)[C@H](C)N)[C@@H](C)O)[C@@H](C)CC)C(C)C)C(=O)N[C@@H](Cc1ccccc1)C(=O)N[C@@H](C)C(=O)N[C@@H](CCCCN)C(=O)NCC(=O)N[C@@H](CCSC)C(=O)O` [AKKAQKSGAQTIVKIFAKGM], the MIC was no less than 122 µM in the experiment on Bacillus cereus and greater than 122 µM in the experiment with Escherichia coli.
As for `CC[C@H](C)[C@H](NC(=O)[C@H](CCCCN)NC(=O)CNC(=O)[C@H](C)NC(=O)[C@@H](NC(=O)[C@H](CO)NC(=O)CNC(=O)[C@H](C)NC(=O)[C@H](CCCCN)NC(=O)[C@H](CO)NC(=O)[C@H](C)NC(=O)[C@H](CCSC)NC(=O)CN)C(C)C)C(=O)N[C@@H](C)C(=O)N[C@@H](CCCCN)C(=O)N[C@@H](Cc1ccccc1)C(=O)N[C@@H](C)C(=O)N[C@@H](CC(C)C)C(=O)NCC(=O)N[C@@H](C)C(=O)N[C@@H](CC(C)C)C(N)=O` [GMASKAGSVAGKIAKFALGAL], the minimal inhibitory concentration (MIC) in experiment [5] is no less than 160 µM; in experiment [1] it was no less than 80 µM; in experiment [2] it was 80 µM (≈ 156 µg/mL).
`CC[C@H](C)[C@H](NC(=O)[C@H](CC(C)C)NC(=O)[C@H](CO)NC(=O)[C@@H]1CCCN1C(=O)[C@@H](NC(=O)[C@@H](NC(=O)[C@H](CCCCN)NC(=O)[C@H](CO)NC(=O)[C@H](C)NC(=O)[C@@H](NC(=O)[C@H](CO)NC(=O)CNC(=O)[C@@H](NC(=O)[C@H](C)NC(=O)[C@@H](N)CO)C(C)C)C(C)C)C(C)C)C(C)C)C(=O)N[C@@H](CO)C(=O)N[C@@H](CCCCN)C(=O)N[C@H](C(=O)N[C@H](C(=O)N[C@@H](CCCCN)C(=O)O)[C@@H](C)O)C(C)C` [SAVGSVASKVVPSLISKVTK]: the minimal inhibitory concentration (MIC) is no less than 131 µM in the experiment on Bacillus cereus and greater than 131 µM against Escherichia coli.
As for `CC(C)C[C@H](NC(=O)[C@H](CCCCN)NC(=O)[C@H](Cc1ccccc1)NC(=O)[C@@H](NC(=O)[C@@H](NC(=O)CNC(=O)[C@H](CC(C)C)NC(=O)[C@@H](N)Cc1ccccc1)C(C)C)C(C)C)C(=O)N[C@@H](C)C(=O)N[C@@H](CO)C(=O)N[C@@H](CCCCN)C(=O)N[C@H](C(=O)N[C@@H](Cc1ccccc1)C(=O)N1CCC[C@H]1C(=O)N[C@@H](C)C(=O)N[C@H](C(=O)N[C@@H](Cc1ccccc1)C(=O)N[C@@H](CCCCN)C(=O)N[C@@H](CCCCN)C(=O)N[C@H](C(=O)O)C(C)C)C(C)C)C(C)C` [FLGVVFKLASKVFPAVFKKV], the MIC is 7.19 µM (≈ 16 µg/mL) in the experiment with Bacillus cereus, 28.8 µM (≈ 64 µg/mL) with Escherichia coli and 1.8 µM (≈ 4 µg/mL) against Staphylococcus aureus.
`CC[C@H](C)[C@H](NC(=O)[C@H](CCCCN)NC(=O)[C@H](CO)NC(=O)[C@H](C)NC(=O)[C@H](Cc1c[nH]c2ccccc12)NC(=O)CN)C(=O)NCC(=O)N[C@@H](CCC(N)=O)C(=O)N[C@@H](C)C(=O)N[C@@H](CC(C)C)C(=O)NCC(=O)N[C@@H](CCCCN)C(=O)N[C@H](C(=O)N[C@@H](C)C(=O)N[C@@H](CCCCN)C(=O)N[C@H](C(=O)NCC(=O)N[C@@H](CC(C)C)C(=O)N[C@@H](CCC(N)=O)C(=O)N[C@@H](CCC(N)=O)C(=O)N[C@@H](Cc1ccccc1)C(=O)N[C@H](C(=O)N[C@@H](CCC(N)=O)C(=O)N1CCC[C@H]1C(=O)N[C@@H](CCCCN)C(=O)O)[C@@H](C)CC)C(C)C)C(C)C` [GWASKIGQALGKVAKVGLQQFIQPK]: the MIC in experiment [1] was 12.5 µM (≈ 33.2 µg/mL); in experiment [2], greater than 100 µM.
On to `CC(C)C[C@H](NC(=O)[C@H](CC(C)C)NC(=O)[C@H](CCCCN)NC(=O)[C@H](CCCCN)NC(=O)[C@H](C)NC(=O)[C@H](C)NC(=O)[C@H](CC(C)C)NC(=O)[C@H](CCCCN)NC(=O)[C@H](CC(C)C)NC(=O)[C@H](CC(C)C)NC(=O)[C@H](CCCCN)NC(=O)[C@H](C)NC(=O)[C@@H](N)Cc1ccccc1)C(N)=O` [FAKLLKLAAKKLL], for which the figures for the MIC in experiment [3] and in experiment [4] were 3.43 µM (≈ 5 µg/mL) and 137 µM (≈ 200 µg/mL), respectively.
Consider `CC[C@H](C)[C@H](NC(=O)[C@@H](NC(=O)[C@H](CO)NC(=O)[C@H](CCCCN)NC(=O)[C@H](C)NC(=O)[C@@H](NC(=O)[C@H](CCCCN)NC(=O)[C@@H](NC(=O)[C@@H](N)CO)C(C)C)C(C)C)C(C)C)C(=O)N1CCC[C@H]1C(=O)N[C@@H](CO)C(=O)N[C@@H](C)C(=O)N[C@H](C(=O)N[C@@H](Cc1ccccc1)C(=O)N[C@@H](C)C(=O)NCC(=O)NCC(=O)N[C@@H](CCCCN)C(=O)N[C@H](C(=O)N[C@@H](Cc1ccccc1)C(=O)O)C(C)C)C(C)C` [SVKVAKSVIPSAVFAGGKVF], for which the values for the MIC against Bacillus cereus and in the experiment on Escherichia coli were no less than 129 µM and greater than 129 µM, respectively.
As for `CC[C@H](C)[C@H](NC(=O)[C@H](C)NC(=O)[C@@H](NC(=O)[C@H](CCCCN)NC(=O)[C@H](C)NC(=O)[C@H](CC(C)C)NC(=O)[C@H](CCCCN)NC(=O)CNC(=O)[C@H](CC(C)C)NC(=O)[C@@H](NC(=O)[C@H](CO)NC(=O)CNC(=O)[C@H](C)NC(=O)[C@H](CCCCN)NC(=O)[C@H](CO)NC(=O)[C@H](C)NC(=O)[C@H](CCSC)NC(=O)CN)C(C)C)C(C)C)C(=O)NCC(=O)N[C@@H](C)C(=O)N[C@@H](CC(C)C)C(N)=O` [GMASKAGSVLGKLAKVAIGAL], the MIC in experiment [1] was 25 µM (≈ 48.5 µg/mL); in experiment [2], 100 µM (≈ 194 µg/mL).
With `CC(C)C[C@H](NC(=O)[C@@H](N)Cc1ccccc1)C(=O)NCC(=O)N[C@@H](CCCCN)C(=O)N[C@H](C(=O)N[C@H](C(=O)N[C@@H](CCCCN)C(=O)N[C@@H](CCCCN)C(=O)N[C@@H](C)C(=O)N[C@@H](CO)C(=O)N[C@@H](CCCCN)C(=O)N[C@H](C(=O)N[C@@H](Cc1ccccc1)C(=O)N1CCC[C@H]1C(=O)N[C@@H](C)C(=O)N[C@H](C(=O)N[C@@H](Cc1ccccc1)C(=O)NCC(=O)N[C@@H](CCCCN)C(=O)N[C@H](C(=O)O)C(C)C)C(C)C)C(C)C)C(C)C)C(C)C` [FLGKVVKKASKVFPAVFGKV], the figures for the MIC with Bacillus cereus, against Escherichia coli and with Staphylococcus aureus were no less than 59.5 µM, 59.5 µM (≈ 128 µg/mL) and greater than 59.5 µM, respectively.
In the case of `CC[C@H](C)[C@H](N)C(=O)N[C@H](C(=O)N[C@H](C(=O)N1CCC[C@H]1C(=O)N1CCC[C@H]1C(=O)N[C@H](C(=O)N[C@H](C(=O)N[C@@H](CCCCN)C(=O)N[C@@H](CC(=O)O)C(=O)N[C@H](C(=O)N[C@@H](CC(C)C)C(=O)N[C@@H](CCCCN)C(=O)N[C@@H](CCCCN)C(=O)N[C@@H](Cc1ccccc1)C(=O)N[C@@H](Cc1ccccc1)C(=O)N[C@@H](CCCCN)C(=O)NCC(=O)NCC(=O)N[C@H](C(=O)N[C@@H](C)C(=O)NCC(=O)N[C@H](C(=O)N[C@@H](CCSC)C(=O)NCC(=O)N[C@@H](CCCCN)C(=O)N[C@@H](CO)C(=O)N[C@@H](CCC(N)=O)C(=O)O)C(C)C)[C@@H](C)CC)[C@@H](C)O)C(C)C)[C@@H](C)CC)[C@@H](C)CC)[C@@H](C)O` [ITIPPIVKDTLKKFFKGGIAGVMGKSQ], the figures for the MIC in experiment [1] and in experiment [2] were no less than 80 µM and 40 µM (≈ 115 µg/mL), respectively.
